Biological target: T1, TAAR1 receptor (UniProt Q96RJ0)
T1 sequence (Q96RJ0 1-339): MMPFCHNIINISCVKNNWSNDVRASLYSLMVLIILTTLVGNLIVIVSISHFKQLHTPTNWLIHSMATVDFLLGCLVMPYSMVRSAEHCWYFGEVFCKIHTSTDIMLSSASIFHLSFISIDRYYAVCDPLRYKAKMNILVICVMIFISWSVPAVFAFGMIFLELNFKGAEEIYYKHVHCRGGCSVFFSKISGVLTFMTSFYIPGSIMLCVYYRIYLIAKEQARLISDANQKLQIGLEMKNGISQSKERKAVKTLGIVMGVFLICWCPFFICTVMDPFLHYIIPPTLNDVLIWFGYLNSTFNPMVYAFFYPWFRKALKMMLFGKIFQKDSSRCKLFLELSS
Test: TAAR1 Agonist cAMP Assay
Assay type: cell-based, human or mouse
Conditions: CHO-K1 cells expressing TAAR1; cAMP HTRF; 30 minutes at room temperature
Method: CHO-K1 cells expressing the human TAAR1 receptor (Accession number NP_612200.1) or mouse TAAR1 receptor (Accession number NP_444435.1) were grown in media (Advanced DMEM supplemented with 1% dialyzed fetal bovine serum) without antibiotics. The cells were detached by gentle flushing with phosphate buffered saline containing 5 mM EDTA, recovered by centrifugation and resuspended in assay buffer (Krebs-Ringers Henseleit buffer: 5 mM KCl, 1.25 mM MgSO4, 124 mM NaCl, 25 mM HEPES, 13.3 mM Glucose, 1.25 mM KH2PO4, 1.45 mM CaCl2, 0.5 g/L BSA, supplemented with 1 mM isobutylmethylxanthine). Testing was performed in 384-well plates. 5 μl of cells (3000 cells) were mixed with 5 μl of the test compound diluted in assay buffer and then incubated for 30 minutes at room temperature. cAMP levels were determined using the Cisbio cAMP Gs dynamic HTRF kit (Cisbio, Bedford, MA). The results of the testing are shown in Table 3, with EC50 ranges designated as follows: • A=0.1 μM to 1 μM • B=0.01 μM to <0.1 μM • C=0.001 μM to <0.01 μM • D=0.0001 μM to <0.001 μM

CNC[C@@H]1CCOc2c(-c3nccs3)cccc21 [Compound 56, (R)—N-methyl-1-(8-(thiazol-2-yl)chroman-4-yl)methanamine]
EC50: 10 to 100 nM

NC[C@@H]1CCOc2c(-c3cncs3)cccc21 [Compound 38]
EC50: 0.1 to 1 nM

NC[C@@H]1CCOc2c(-c3cnc[nH]3)cccc21 [Compound 44, 1-[(4R)-8-(1H-imidazol-5-yl)-3,4-dihydro-2H-1-benzopyran-4-yl]methanamine]
EC50: 1 to 10 nM

Cc1cc(-c2cccc3c2OCC[C@H]3CN)c(C)cn1 [Compound 19, (R)-(8-(2,5-dimethylpyridin-4-yl)chroman-4-yl)methanamine]
EC50: 1 to 10 nM

Cc1cc(-c2cccc3c2OCC[C@@H]3CN)ccn1 [Compound 15, (S)-(8-(2-methylpyridin-4-yl)chroman-4-yl)methanamine]
EC50: 1 to 10 nM

CNC[C@@H]1CCOc2c(-c3cnn(C)c3C)cccc21 [Compound 48]
EC50: 1 to 10 nM

CNC[C@@H]1CCOc2c(-c3ccc(C)nc3)cccc21 [Compound 14, (R)—N-methyl-1-(8-(6-methylpyridin-3-yl)chroman-4-yl)methanamine]
EC50: 1 to 10 nM

Cc1cc(C)c(-c2cccc3c2OCC[C@H]3CN)cn1 [Compound 29, 1-[(4R)-8-(4,6-dimethylpyridin-3-yl)-3,4-dihydro-2H-1-benzopyran-4-yl]methanamine]
EC50: 1 to 10 nM

NC[C@@H]1CCOc2c(-c3cccnc3)cccc21 [Compound 22]
EC50: 0.1 to 1 nM

Cc1nccc(-c2cccc3c2OCC[C@H]3CN)c1C [Compound 30, (R)-(8-(2,3-dimethylpyridin-4-yl)chroman-4-yl)methanamine]
EC50: 10 to 100 nM

CNC[C@@H]1CCOc2c(-c3cncn3C)cccc21 [Compound 37]
EC50: 10 to 100 nM

CNC[C@@H]1CCOc2c(-c3cnn(C)c3)cccc21 [Compound 54, (R)—N-methyl-1-(8-(1-methyl-1H-pyrazol-4-yl)chroman-4-yl)methanamine]
EC50: 1 to 10 nM

CNC[C@@H]1CCOc2c(-c3ccnnc3)cccc21 [Compound 41]
EC50: 10 to 100 nM

CNC[C@H]1CCOc2c(-c3cccnc3)cccc21 [Compound 25]
EC50: 10 to 100 nM

NC[C@@H]1CCOc2c(-c3ccnc(C(F)(F)F)c3)cccc21 [Compound 9, 1-[(4R)-8-[2-(trifluoromethyl)pyridin-4-yl]-3,4-dihydro-2H-1-benzopyran-4-yl]methanamine]
EC50: 0.1 to 1 nM

Cc1ccc(-c2cccc3c2OCC[C@H]3CN)cn1 [Compound 13, (R)-(8-(6-methylpyridin-3-yl)chroman-4-yl)methanamine]
EC50: 0.1 to 1 nM

Cc1cc(-c2cccc3c2OCC[C@H]3CN)ccn1 [Compound 17, (R)-(8-(2-methylpyridin-4-yl)chroman-4-yl)methanamine]
EC50: 1 to 10 nM

CNC[C@@H]1CCOc2c(-c3cncnc3)cccc21 [Compound 32]
EC50: 1 to 10 nM

CNC[C@@H]1CCOc2c(-c3cscn3)cccc21 [Compound 50]
EC50: 1 to 10 nM

CNC[C@@H]1CCOc2c(-c3ccncc3OC)cccc21 [Compound 12, (R)-1-(8-(3-methoxypyridin-4-yl)chroman-4-yl)-N-methylmethanamine]
EC50: 100 to 1000 nM

Cc1ncccc1-c1cccc2c1OCC[C@H]2CN [Compound 27]
EC50: 10 to 100 nM

CNC[C@@H]1CCOc2c(-c3ccc(C(F)(F)F)nc3)cccc21 [Compound 8, methyl({[(4R)-8-[6-(trifluoromethyl)pyridin-3-yl]-3,4-dihydro-2H-1-benzopyran-4-yl]methyl})amine]
EC50: 10 to 100 nM

CNC[C@H]1CCOc2c(-c3ccnc(C)c3)cccc21 [Compound 16, (S)—N-methyl-1-(8-(2-methylpyridin-4-yl)chroman-4-yl)methanamine]
EC50: 10 to 100 nM

CNC[C@@H]1CCOc2c(-c3cnccn3)cccc21 [Compound 35]
EC50: 10 to 100 nM

CNCC1CCOc2c(-c3cnccc3C)cccc21 (stereo in doubt) [Compound 6, (R)—N-methyl-1-(8-(4-methylpyridin-3-yl)chroman-4-yl)methanamine]
EC50: 1 to 10 nM

CNC[C@@H]1CCOc2c(-c3ccc(F)cc3)cccc21 [Compound 53, (R)-1-(8-(4-fluorophenyl)chroman-4-yl)-N-methylmethanamine]
EC50: 1 to 10 nM

COc1cnccc1-c1cccc2c1OCC[C@H]2CN [Compound 11, [(4R)-8-(3-methoxypyridin-4-yl)-3,4-dihydro-2H-1-benzopyran-4-yl]methanamine]
EC50: 1 to 10 nM

NC[C@@H]1CCOc2c(-c3cncnc3)cccc21 [Compound 31]
EC50: 1 to 10 nM

CNC[C@@H]1CCOc2c(-c3cn(C)nc3C)cccc21 [Compound 49]
EC50: 10 to 100 nM

NC[C@@H]1CCOc2c(-c3ccnnc3)cccc21 [Compound 40]
EC50: 1 to 10 nM

CNC[C@@H]1CCOc2c(-c3ccncc3C)cccc21 [Compound 21, methyl({[(4R)-8-(3-methylpyridin-4-yl)-3,4-dihydro-2H-1-benzopyran-4-yl]methyl})amine]
EC50: 10 to 100 nM

NC[C@@H]1CCOc2c(-c3ccc(C(F)(F)F)nc3)cccc21 [Compound 7, 1-[(4R)-8-[6-(trifluoromethyl)pyridin-3-yl]-3,4-dihydro-2H-1-benzopyran-4-yl]methanamine]
EC50: 10 to 100 nM

Cc1ccncc1-c1cccc2c1OCC[C@H]2CN [Compound 5, (R)-(8-(4-methylpyridin-3-yl)chroman-4-yl)methanamine]
EC50: 1 to 10 nM

CNC[C@@H]1CCOc2c(-c3cccnc3C)cccc21 [Compound 28]
EC50: 10 to 100 nM

CNC[C@@H]1CCOc2c(-c3ccn(C)n3)cccc21 [Compound 55, (R)—N-methyl-1-(8-(1-methyl-1H-pyrazol-3-yl)chroman-4-yl)methanamine]
EC50: 10 to 100 nM

Cc1cnccc1-c1cccc2c1OCC[C@H]2CN [Compound 20, (R)-(8-(3-methylpyridin-4-yl)chroman-4-yl)methanamine]
EC50: 1 to 10 nM

CNC[C@@H]1CCOc2c(-c3ccnc(C(F)(F)F)c3)cccc21 [Compound 10]
EC50: 1 to 10 nM

Cn1cncc1-c1cccc2c1OCC[C@H]2CN [Compound 36]
EC50: 1 to 10 nM

CNC[C@@H]1CCOc2c(-c3cnc[nH]3)cccc21 [Compound 45, {[(4R)-8-(1H-imidazol-5-yl)-3,4-dihydro-2H-1-benzopyran-4-yl]methyl}(methyl)amine]
EC50: 1 to 10 nM

CNC[C@@H]1CCOc2c(-c3cc(C)ncc3C)cccc21 [Compound 33]
EC50: 1 to 10 nM

CNC[C@@H]1CCOc2c(-c3cncs3)cccc21 [Compound 39]
EC50: 1 to 10 nM

CNC[C@@H]1CCOc2c(-c3ccnc(C)c3C)cccc21 [Compound 42]
EC50: 10 to 100 nM

NC[C@@H]1CCOc2c(-c3cnccn3)cccc21 [Compound 34]
EC50: 10 to 100 nM

CNC[C@@H]1CCOc2c(-c3cnsc3)cccc21 [Compound 57, (R)-1-(8-(isothiazol-4-yl)chroman-4-yl)-N-methylmethanamine]
EC50: 1 to 10 nM

Cc1ncc(-c2cccc3c2OCC[C@H]3CN)cn1 [Compound 26]
EC50: 10 to 100 nM

CNC[C@@H]1CCOc2c(-c3cnc(C)nc3)cccc21 [Compound 43]
EC50: 100 to 1000 nM

CNC[C@@H]1CCOc2c(-c3ccnc(C)c3)cccc21 [Compound 18, (R)—N-methyl-1-(8-(2-methylpyridin-4-yl)chroman-4-yl)methanamine]
EC50: 1 to 10 nM

NC[C@H]1CCOc2c(-c3cccnc3)cccc21 [Compound 24]
EC50: 10 to 100 nM

From patent US20240150330A1, “CHROMANS AND BENZOFURANS AS 5-HT1A AND TAAR1 AGONISTS” (Sunovion Pharmaceuticals Inc., priority 2021, published 2024)
